According to publication PMC3791137 (Journal of the American Chemical Society, 2013):

What was measured:
[1] = common buffers, physiological pH; cited from earlier work
NSCs = assay: Sin-1-induced ZBR1 fluorescence change; assay type: cell-based, rat; details: 100 μM Sin-1, first 15 min; vehicle 105 ± 7%
[2] = pH 9.5, excitation 572 nm; cited from earlier work

Structure (SMILES) | Half-life [1] | Fluorescence intensity of ZBR1 after Sin-1 (NSCs) | Quantum yield (standard) [2]
N=c1c[n+](N2CCOCC2)[n-]o1 [Sin-1, 3-morpholinosydnonimine] | 14 to 26 min | 89 ± 4% | –
O=c1ccc2nc3ccc(O)cc3oc-2c1 [resorufin] | – | – | 0.74
